The MIC is the smallest concentration in the dilution series that meets the test's criterion for growth inhibition.

Structures are written as SMILES. In brackets after ≈: the same amount, converted by molar mass.

The results in this text go back to ChEMBL document CHEMBL3046844, “Synthesis of novel 4-thiazolidione derivatives as antibacterial agents against drug-resistant Staphylococcus epidermidis” (2013).

Common to all, as to assay type: functional
The subject of test [1] is Staphylococcus epidermidis. Briefly: Antibacterial activity against Staphylococcus epidermidis RP62A assessed as growth inhibition after 12 hr by CLSI broth microdilution method. Background: Broth dilution looks for growth in wells or tubes with falling amounts of substance.
Test [2] has as its system Staphylococcus aureus. The experiment in a line: Antibacterial activity against methicillin-resistant Staphylococcus aureus 8166 clinical isolate assessed as growth inhibition after 12 hr by CLSI broth microdilution method. The following applies: Staphylococcus aureus, 8166, 12 h.
Test [3] has as its system Staphylococcus epidermidis. Briefly: Antibacterial activity against methicillin-resistant Staphylococcus epidermidis 8311 clinical isolate assessed as growth inhibition after 12 hr by CLSI broth microdilution method. The conditions noted are these: Staphylococcus epidermidis, 8311, 12 h.
The subject of test [4] is Staphylococcus aureus. The experiment in a line: Antibacterial activity against methicillin-resistant Staphylococcus aureus 8282 clinical isolate assessed as growth inhibition after 12 hr by CLSI broth microdilution method. The conditions noted are these: Staphylococcus aureus, 8282, 12 h.
A further test deals with Escherichia coli. The experiment in a line: Antibacterial activity against Escherichia coli ATCC 25922 assessed as growth inhibition after 12 hr by CLSI broth microdilution method. The conditions noted are these: ATCC 25922, 12 h.
Another test has as its system Salmonella. Briefly: Antibacterial activity against Salmonella assessed as growth inhibition after 12 hr by CLSI broth microdilution method.
The test system of test [5] is Staphylococcus epidermidis. The experiment in a line: Antibacterial activity against methicillin-resistant Staphylococcus epidermidis 8354 clinical isolate assessed as growth inhibition after 12 hr by CLSI broth microdilution method. The conditions noted are these: Staphylococcus epidermidis, 8354, 12 h.

Take `O=C(O)COc1ccc(/C=C2/S/C(=N\c3ccccc3Cl)N(c3ccccc3Cl)C2=O)cc1`: the MIC in test [1] is 3.13 µM (≈ 1.56 µg/mL); in the test with Staphylococcus aureus [2] it was 12.5 µM (≈ 6.24 µg/mL); in test [3], 3.13 µM (≈ 1.56 µg/mL); in the test on Staphylococcus aureus [4], 3.13 µM (≈ 1.56 µg/mL); in the test on Escherichia coli it was greater than 200 µM; in the test on Salmonella, greater than 200 µM. The minimal inhibitory concentration (MIC) in test [5] is 3.13 µM (≈ 1.56 µg/mL).
Regarding `O=C(O)COc1ccc(/C=C2/S/C(=N\c3ccc(F)cc3)N(c3ccc(F)cc3)C2=O)cc1`, the MIC in test [1] is 25 µM (≈ 11.7 µg/mL); with Escherichia coli, greater than 200 µM; in the test with Salmonella, greater than 200 µM.
In the case of `O=C(O)COc1ccc(/C=C2/S/C(=N\c3ccc(Br)cc3)N(c3ccc(Br)cc3)C2=O)cc1`, the minimum inhibitory concentration (MIC) in test [1] is 3.13 µM (≈ 1.84 µg/mL); in the test on Staphylococcus aureus [2], 6.25 µM (≈ 3.68 µg/mL); in test [3] it was 3.13 µM (≈ 1.84 µg/mL); with Staphylococcus aureus [4], 3.13 µM (≈ 1.84 µg/mL); in the test on Escherichia coli it was greater than 200 µM; in the test with Salmonella, greater than 200 µM. Also, in test [5], the MIC worked out at 3.13 µM (≈ 1.84 µg/mL).
On to `O=C(O)COc1ccc(/C=C2/S/C(=N\c3cccc(Cl)c3)N(c3cccc(Cl)c3)C2=O)cc1`, for which the minimal inhibitory concentration (MIC) is 3.13 µM (≈ 1.56 µg/mL) in test [1]; 12.5 µM (≈ 6.24 µg/mL) in the test on Staphylococcus aureus [2]; 3.13 µM (≈ 1.56 µg/mL) in test [3]; 3.13 µM (≈ 1.56 µg/mL) with Staphylococcus aureus [4]; greater than 200 µM in the test on Escherichia coli; greater than 200 µM in the test with Salmonella. The minimal inhibitory concentration (MIC) in test [5] was determined as 3.13 µM (≈ 1.56 µg/mL).
With `O=C(O)COc1ccc(/C=C2/S/C(=N\c3ccc(Cl)cc3)N(c3ccc(Cl)cc3)C2=O)cc1`, the MIC in test [1] was 1.57 µM (≈ 0.784 µg/mL); in the test on Staphylococcus aureus [2], 6.25 µM (≈ 3.12 µg/mL); in test [3], 1.57 µM (≈ 0.784 µg/mL); in the test with Staphylococcus aureus [4], 3.13 µM (≈ 1.56 µg/mL); in the test with Escherichia coli, greater than 200 µM; in the test with Salmonella, greater than 200 µM. Moreover, the MIC in test [5] came out at 1.57 µM (≈ 0.784 µg/mL).
For `COc1cc(/C=C2/S/C(=N\c3ccc(Cl)cc3)N(c3ccc(Cl)cc3)C2=O)ccc1OCC(=O)O`, the MIC in test [1] was 6.25 µM (≈ 3.31 µg/mL); with Escherichia coli, greater than 200 µM; with Salmonella it was greater than 200 µM.
Regarding `O=C(O)COc1cccc(/C=C2/S/C(=N\c3ccc(Cl)cc3)N(c3ccc(Cl)cc3)C2=O)c1`, the MIC in test [1] is 25 µM (≈ 12.5 µg/mL); in the test on Escherichia coli it was greater than 200 µM; with Salmonella, greater than 200 µM.
Regarding `CCc1ccccc1/N=C1\S/C(=C/c2ccc(OCC(=O)O)c(OC)c2)C(=O)N1c1ccccc1CC`, the MIC in test [1] is 50 µM (≈ 25.8 µg/mL); in the test on Escherichia coli, greater than 200 µM; with Salmonella, greater than 200 µM.
Regarding `O=C(O)c1ccc(/C=C2/S/C(=N\c3ccccc3)N(c3ccccc3)C2=O)cc1`, the MIC in test [1] was 50 µM (≈ 20 µg/mL); in the test with Escherichia coli, greater than 200 µM; in the test on Salmonella, greater than 200 µM.
For `O=C(O)c1ccc(/C=C2/S/C(=N\c3ccc(F)cc3)N(c3ccc(F)cc3)C2=O)cc1`, the values for the minimum inhibitory concentration (MIC) (in test [1]; with Escherichia coli; with Salmonella) were 25 µM (≈ 10.9 µg/mL), greater than 200 µM and greater than 200 µM, respectively.
For `O=C(O)c1ccc(/C=C2/S/C(=N\c3ccc(Br)cc3)N(c3ccc(Br)cc3)C2=O)cc1`, the results for the MIC (in test [1]; in the test with Escherichia coli; in the test with Salmonella) were 12.5 µM (≈ 6.98 µg/mL), greater than 200 µM and greater than 200 µM, respectively.
For the compound `O=C(O)c1ccc(/C=C2/S/C(=N\c3ccc(Cl)cc3)N(c3ccc(Cl)cc3)C2=O)cc1`, the MIC is 3.13 µM (≈ 1.47 µg/mL) in test [1]; 12.5 µM (≈ 5.87 µg/mL) in the test with Staphylococcus aureus [2]; 3.13 µM (≈ 1.47 µg/mL) in test [3]; 3.13 µM (≈ 1.47 µg/mL) in the test with Staphylococcus aureus [4]; greater than 200 µM with Escherichia coli; greater than 200 µM in the test with Salmonella. In test [5], the MIC came to 3.13 µM (≈ 1.47 µg/mL).
On to `O=C(O)c1ccc(COc2ccc(/C=C3/S/C(=N\c4ccc(Cl)cc4)N(c4ccc(Cl)cc4)C3=O)cc2)cc1`, for which the MIC (in test [1]; in the test with Escherichia coli; in the test on Salmonella) was greater than 200 µM throughout.
`O=C(O)COc1ccc(/C=C2/S/C(=N\c3ccccc3)N(c3ccccc3)C2=O)cc1`: the MIC was 100 µM (≈ 43 µg/mL) in test [1], greater than 200 µM in the test with Escherichia coli and greater than 200 µM in the test on Salmonella.
Regarding `CC1(C)S[C@@H]2[C@H](NC(=O)[C@H](N)c3ccccc3)C(=O)N2[C@H]1C(=O)O` [AMPICILLIN], the values for the MIC (in test [1]; in the test on Escherichia coli; in the test on Salmonella) were 11.5 µM (≈ 4.02 µg/mL), greater than 200 µM and greater than 200 µM, respectively.
Regarding `C[C@H]1COc2c(N3CCN(C)CC3)c(F)cc3c(=O)c(C(=O)O)cn1c23` [LEVOFLOXACIN], the MIC (with Staphylococcus aureus [2]; in test [3]; in the test on Staphylococcus aureus [4]; in test [5]) was 22.1 µM (≈ 7.99 µg/mL) in each case.
`COc1cccc(OC)c1C(=O)N[C@@H]1C(=O)N2[C@@H]1SC(C)(C)[C@@H]2C(=O)O` [METHICILLIN]: the minimum inhibitory concentration (MIC) in test [1] was 5.26 µM (≈ 2 µg/mL); in the test on Staphylococcus aureus [2] it was 65.7 µM (≈ 25 µg/mL); in test [3] it was 65.7 µM (≈ 25 µg/mL); in the test on Staphylococcus aureus [4], 65.7 µM (≈ 25 µg/mL); in the test on Escherichia coli it was greater than 200 µM; in the test with Salmonella, greater than 200 µM. In addition, the MIC in test [5] amounted to 65.7 µM (≈ 25 µg/mL).
